Experimental data taken from US20230277698A1, “SILICON-CONTAINING LIGAND COMPOUNDS” (Technische Universität München, priority 2020, published 2023).

Tests used:
[1] = target: human serum albumin (HSA) (Homo sapiens, UniProt P02768); assay: HSA binding by high performance affinity chromatography (HiPAC); format: in vitro ADME; set-up: purchased Daicel, Tokyo, Japan H13H-2433; conditions: lutetium-complexed; Chiralpak HSA column
Description: HSA binding of the PSMA-addressing ligands was determined according to a previously published procedure via HPLC (Valko, K.; Nunhuck, S.; Bevan, C.; Abraham, M. H.; Reynolds, D. P., Fast gradient HPLC method to determine compounds binding to human serum albumin. Relationships with octanol/water and immobilized artificial membrane lipophilicity. J Pharm Sci. 2003, 92, 2236-2248). A Chiralpak HSA column (50×3 mm, 5 μm, H13H-2433, Daicel, Tokyo, Japan) was used at a constant flow rate of 0.5 mL/min at rt. Mobile phase A was a freshly prepared 50 mM aqueous solution of NH4OAc (pH 6.9) and mobile phase B was isopropanol (HPLC grade, VWR). The applied gradient for all experiments was 100% A (0 to 3 min), followed by 80% A (3 to 40 min). Prior to the experiment, the column was calibrated using nine reference substances with a HSA binding, known from literature, in the range of 13 to 99% (Valko, K.; Nunhuck, S.; Bevan, C.; Abraham, M. H.; Reynolds, D. P., J Pharm Sci. 2003, 92, 2236-2248; Yamazaki, K.; Kanaoka, M., Computational prediction of the plasma protein-binding percent of diverse pharmaceutical compounds. J Pharm Sci. 2004, 93, 1480-1494). All substances, including the examined PSMA ligands, were dissolved in a 1:1 mixture (v/v) of isopropanol and a 50 mM aqueous solution of NH4OAc (pH 6.9) with a final concentration of 0.5 mg/mL. Non-linear regression was established with the OriginPro 2016G software (Northampton, United States).
FIG. 1 is an exemplary sigmoidal plot, showing the correlation between human serum albumin (HSA) binding of selected reference substances and retention time (tR). The underlying values of HSA binding also shown in the corresponding table and were obtained from literature (Valko, K.; Nunhuck, S.; Bevan, C.; Abraham, M. H.; Reynolds, D. P., J Pharm Sci. 2003, 92, 2236-2248; Yamazaki, K.; Kanaoka, M., J Pharm Sci. 2004, 93, 1480-1494). Log tR: logarithmic value of experimentally determined retention time. Log K HSA: logarithmic value of HSA binding values.

[2] = system: LNCaP cells; assay: Internalization studies on LNCaP cells; format: cell-based; conditions: 177Lu-labelled, c=1.0 nM, 1 hour, 37 °C; % of reference ligand ([125I]I-BA)KuE (c=0.2 nM); corrected for non-specific binding (PMPA); mean±SD, n=3-6
Description: PSMA-positive LNCAP cells (300265; Cell Lines Service, Eppelheim, Germany) were cultivated in Dulbecco modified Eagle medium/Nutrition Mixture F-12 with Glutamax (1:1) (DMEM-F12, Biochrom, Berlin, Germany) supplemented with fetal bovine serum (10%, FBS Zellkultur, Berlin, Germany) and kept at 37° C. in a humidified CO2 atmosphere (5%). A mixture of trypsin and EDTA (0.05%, 0.02%) in PBS (Biochrom) was used in order to harvest cells. Cells were counted with a Neubauer hemocytometer (Paul Marienfeld, Lauda-Königshofen, Germany).
For internalization studies, LNCaP cells were harvested 24±2 hours before the experiment and seeded in poly-L-lysine coated 24-well plates (1.25×10^5 cells in 1 mL/well, Greiner Bio-One, Kremsmünster, Austria). After removal of the culture medium, the cells were washed once with 500 μL DMEM-F12 (5% BSA) and left to equilibrate for at least 15 min at 37° C. in 200 μL DMEM-F12 (5% BSA). Each well was treated with either 25 μL of either DMEM-F12 (5% BSA, control) or 25 μL of a 100 μM PMPA (2-(Phosphonomethyl)-pentandioic acid, Tocris Bioscience, Bristol, UK) solution in PBS, for blockade. Next, 25 μL of the radioactive-labelled PSMA inhibitor (10.0 nM in PBS) was added and the cells were incubated at 37° C. for 60 min. The experiment was terminated by placing the 24-well plate on ice for 3 min and consecutive removal of the medium. Each well was carefully washed with 250 μL of ice-cold HBSS. Both fractions from the first steps, representing the amount of free radioligand, were combined. Removal of surface bound activity was accomplished by incubation of the cells with 250 μL of ice-cold PMPA (10 μM in PBS) solution for 5 min and rinsed again with another 250 μL of ice-cold PBS. The internalized activity was determined by incubation of the cells in 250 μL 1 M aqueous NaOH for at least 10 min. The obtained fractions were combined with those of the subsequent wash step with 250 μL 1 M aqueous NaOH. Each experiment (control and blockade) was performed in triplicate. Free, surface bound and internalized activity was quantified in a γ-counter. All internalization studies were accompanied by external reference studies, using ([^125I]l-BA)KuE (c=0.2 nM), which were performed analogously. Data were corrected for non-specific binding and normalized to the specific-internalization observed for the radioiodinated reference compound.
Data is corrected for non-specific binding (10 μmol PMPA) and expressed as mean±SD (n=3-6): […]

[3] = Octanol-water partition coefficient; format: physicochemical; conditions: 177Lu-labelled; n-octanol/PBS pH 7.4; n=6
Description: Approximately 1 MBq of the labelled tracer was dissolved in 1 mL of a 1:1 mixture (v/v) of PBS (pH 7.4) and n-octanol in a reaction vial (1.5 mL). After vigorous mixing of the suspension for 3 minutes at room temperature, the vial was centrifuged at 15000 g for 3 minutes (Biofuge 15, Heraeus Sepatech, Osterode, Germany) and 100 μL aliquots of both layers were measured in a gamma counter. The experiment was repeated at least six times.
FIG. 5 and the following table summarize log PO/W values of the synthesized radiolabeled ^177Lu-PSMA ligand compounds and ^177Lu-references (n=6).

Chain of human serum albumin (HSA) (P02768 25-609): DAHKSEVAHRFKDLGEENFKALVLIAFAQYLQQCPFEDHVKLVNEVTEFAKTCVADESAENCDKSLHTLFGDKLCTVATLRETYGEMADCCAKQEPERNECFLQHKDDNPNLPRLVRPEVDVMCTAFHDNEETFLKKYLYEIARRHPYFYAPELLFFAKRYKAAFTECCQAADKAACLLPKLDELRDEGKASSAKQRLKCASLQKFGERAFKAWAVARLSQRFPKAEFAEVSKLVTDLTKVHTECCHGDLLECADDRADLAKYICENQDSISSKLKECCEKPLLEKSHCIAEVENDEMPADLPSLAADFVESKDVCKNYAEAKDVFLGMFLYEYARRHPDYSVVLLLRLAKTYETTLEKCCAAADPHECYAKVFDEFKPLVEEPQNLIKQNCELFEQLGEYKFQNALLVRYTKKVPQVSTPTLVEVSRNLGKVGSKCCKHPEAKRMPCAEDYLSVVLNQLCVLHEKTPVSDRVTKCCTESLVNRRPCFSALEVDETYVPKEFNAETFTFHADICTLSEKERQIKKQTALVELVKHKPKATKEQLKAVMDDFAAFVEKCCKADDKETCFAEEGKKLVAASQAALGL

SMILES	HSA-binding HiPAC [1]	Internalization (% IBA) [2]	Log PO/W [3]
CC(C)(C)[Si](O)(c1ccc(C(=O)NC[C@@H](NC(=O)CC[C@@H](C(=O)O)N2CCN(CC(=O)O)CCN(CC(=O)O)CCN(CC(=O)O)CC2)C(=O)N[C@H](CCCCNC(=O)CCC(=O)NCCC[C@@H](NC(=O)CC[C@H](NC(=O)N[C@@H](CCC(=O)O)C(=O)O)C(=O)O)C(=O)O)C(=O)O)cc1)C(C)(C)C [7.3-SiOH]	96.4%	225 ± 23 % IBA	−3.9 ± 0.1
CC(C)(C)[Si](O)(c1ccc(C(=O)NC[C@@H](NC(=O)CC[C@@H](C(=O)O)N2CCN(CC(=O)O)CCN(CC(=O)O)CCN(CC(=O)O)CC2)C(=O)N[C@H](CO)C(=O)NCCC(=O)NCCC(=O)NCCC[C@@H](NC(=O)CC[C@H](NC(=O)N[C@@H](CCC(=O)O)C(=O)O)C(=O)O)C(=O)O)cc1)C(C)(C)C [C007-SiOH]	86.3%	185 ± 15 % IBA	−4.28 ± 0.09
CC(C)(C)[Si](O)(c1ccc(C(=O)NC[C@@H](NC(=O)CC[C@@H](C(=O)O)N2CCN(CC(=O)O)CCN(CC(=O)O)CCN(CC(=O)O)CC2)C(=O)NCC(=O)N[C@@H](CCCCNC(=O)CCC(=O)NCCC[C@@H](NC(=O)CC[C@H](NC(=O)N[C@@H](CCC(=O)O)C(=O)O)C(=O)O)C(=O)O)C(=O)O)cc1)C(C)(C)C [E102-SiOH]	95.1%	203 ± 15 % IBA	−4.14 ± 0.08
CC(C)(C)[Si](O)(c1ccc(C(=O)NC[C@@H](NC(=O)CCCCCNC(=O)CCCNC(=O)CC[C@@H](NC(=O)CCC(NC(=O)N[C@@H](CCC(=O)O)C(=O)O)C(=O)O)C(=O)O)C(=O)NCC(=O)N[C@@H](CCCCNC(=O)CC[C@@H](C(=O)O)N2CCN(CC(=O)O)CCN(CC(=O)O)CCN(CC(=O)O)CC2)C(=O)O)cc1)C(C)(C)C (stereo partly drawn) [E104-SiOH]	85.8%	103 ± 2 % IBA	−3.77 ± 0.16
CC(C)(C)[Si](O)(c1ccc(C(=O)N[C@H](CCC(=O)NC[C@@H](NC(=O)CC[C@@H](C(=O)O)N2CCN(CC(=O)O)CCN(CC(=O)O)CCN(CC(=O)O)CC2)C(=O)NCCCCCC(=O)NCCC[C@@H](NC(=O)CC[C@H](NC(=O)N[C@@H](CCC(=O)O)C(=O)O)C(=O)O)C(=O)O)C(=O)O)cc1)C(C)(C)C [P105-SiOH]	97.8%	185 ± 4 % IBA	−3.94 ± 0.07
CC(C)(C)[Si](O)(c1ccc(C[N+](C)(C)CC(=O)NCCC[C@@H](NC(=O)CC[C@@H](C(=O)O)N2CCN(CC(=O)O)CCN(CC(=O)O)CCN(CC(=O)O)CC2)C(=O)NCCCCCC(=O)NCCC[C@@H](NC(=O)CC[C@H](NC(=O)N[C@@H](CCC(=O)O)C(=O)O)C(=O)O)C(=O)O)cc1)C(C)(C)C [P110-SiOH]	31.3%	46 ± 2 % IBA	−4.11 ± 0.07
O=C(O)CC[C@H](NC(=O)N[C@@H](CCCCNC(=O)[C@H](Cc1ccc2ccccc2c1)NC(=O)[C@H]1CC[C@H](CNC(=O)CN2CCN(CC(=O)O)CCN(CC(=O)O)CCN(CC(=O)O)CC2)CC1)C(=O)O)C(=O)O [PSMA-617, reference compound]	74.7%	160 ± 2 % IBA	−4.1 ± 0.1
CC(C)(C)[Si](F)(c1ccc(C(=O)NC[C@@H](NC(=O)CC[C@@H](C(=O)O)N2CCN(CC(=O)O)CCN(CC(=O)O)CCN(CC(=O)O)CC2)C(=O)N[C@H](CCCCNC(=O)CCC(=O)NCCC[C@@H](NC(=O)CC[C@H](NC(=O)N[C@@H](CCC(=O)O)C(=O)O)C(=O)O)C(=O)O)C(=O)O)cc1)C(C)(C)C [rhPSMA-7.3, reference compound]	98.5%	162 ± 14 % IBA	−3.8 ± 0.1
CC(C)(C)[Si](F)(c1ccc(C(=O)NC[C@@H](NC(=O)CN2CCN(CC(=O)O)CCN(CC(=O)O)CCN(CC(=O)O)CC2)C(=O)N[C@H](CCCCNC(=O)CCC(=O)NCCC[C@@H](NC(=O)CC[C@H](NC(=O)N[C@@H](CCC(=O)O)C(=O)O)C(=O)O)C(=O)O)C(=O)O)cc1)C(C)(C)C [rhPSMA-10, reference compound]	94.0%	231 ± 57 % IBA	−3.6 ± 0.1
